This is an account of results in patent US12234299B2, “Peptides for inducing bacteriocin synthesis and methods to identify and/or select and/or optimize the same” (SYNGULON S.A., priority 2018, dated 2025).

The subject of one assay is ScuR. The assay is described as follows: Mobility shift assay (EMSA) of promoter probes with purified ScuR and synthetic peptide. The note with it: ScuR 4 μM; peptide 2:2 dilutions from 20 μM; FIG. 10B. In kind it is binding, Streptococcus salivarius. How it is done:
All double-stranded DNA fragments (30 or 40 bp) were obtained from annealing of single-stranded Cy3-labelled (at 5′ end) and unlabeled oligonucleotides. Typically, a gel shift reaction (20 μl) was performed in a binding buffer (20 mM Tris-HCl pH 8.0, 150 mM NaCl, 1 mM EDTA, 1 mM DTT, 10% glycerol, 1 mg ml-1 BSA) and contained 150 ng labelled probe and […] StrepTag proteins. When necessary, […] of ComS peptides (unless otherwise stated) are added. The reaction is incubated at 37° C. for 10 min prior to loading of the samples on a native TBE 5% gel. The gel is next subjected to 80 V for approximately 1 h in TBE buffer. DNA complexes were detected by fluorescence on the Ettan DIGE Imager with bandpass excitation filters (nm): 540/25 (Cy3) or 635/30 (Cy5) and bandpass emission filters: 595/25 (Cy3) or 680/30 (Cy5) (GE Healthcare, Waukesha, WI).
The PCR-amplified scuR-StrepTag and gene sarF-StrepTag were cloned into the pBAD-comR-ST vector (see supplemental information). The ComR-StrepTag, ScuR-StrepTag and SarF-StrepTag recombinant proteins were overproduced in E. coli and purified as previously described (Fontaine et al., 2013) in standard native conditions on Strep-Tactin agarose beads (IBA).

Assay [1] concerns sptA promoter (PsptA), ScuR/SarF system. The assay is described as follows: Luciferase (luxAB) promoter activity of PsptA with exogenous synthetic peptides. Particulars: for Maximal activity of PsptA exposed to sBI7 mutant peptides, low concentration: 0.001 μM (1 nM) peptide, FIG. 3C; for Maximal activity of PsptA exposed to sBI7 mutant peptides, high concentration: 1 μM peptide, FIG. 3E. The assay is classed as cell-based, Streptococcus salivarius HSISS4. How it is done:
(§1) Overnight precultures were diluted at a final OD600 of 0.05. A volume of 300 μl of culture samples was incubated in the wells of a sterile covered white microplate with a transparent bottom (Greiner, Alphen a/d Rijn, The Netherlands) for 75 min at 37° C. and then supplemented with synthetic peptides (1 μM, except if otherwise stated) or DMSO, and xylose where required. Growth (OD600) and luciferase (Lux) activity (expressed in relative light units) was monitored at 10 min intervals during 24 h in a multi-wells plate reader (Hidex Sense, Hidex, Turku, Finland) as previously described (Fontaine et al., 2013).

Another assay has as its system sptA promoter (PsptA). Description: PsptA-luxAB activity with xylose-induced intracellularly expressed peptides. The assay is classed as cell-based, Streptococcus salivarius.
Source text: (§2) To generate the two DNA libraries encoding randomized sequence of small peptides, we performed overlapping PCRs to graft fragments encompassing the follow features: (1) a 5′ recombination arm (for the ectopic tRNA^ser locus); (2) the xylR gene that codes for the xylose responsive regulator; (3) either Pxyl1 (library I) or Pxyl2 (library II) translationally-fused to a 12 codon long gene, for which the last 7 are randomized; (4) the spec gene; (5) a 3′ recombination arm (for the ectopic tRNA^ser locus). To obtain the randomized DNA stretch, we used a 78 nucleotide long primer degenerated on 21 contiguous positions. Next, we transformed these two libraries in strains containing the sptA promoter translationally-fused to the cat gene (chloramphenicol resistance) in which the associated spec gene was excised by the previously described cre-lox method. The initial background of these strains were either a comR-overexpressing (Pxyl1-comR) or a salivaricin-deprived (Δslv5) strain. We plated transformed cells on solid medium supplemented with xylose (either 0.1 or 1%), chloramphenicol ([…]) and spectinomycin ([…]) and grew overnight. We restreaked single colonies on fresh chloramphenicol and spectinomycin solid medium supplemented or not with xylose.
as §1

For assay [2], the system named is sptA promoter (PsptA) fused to cat, ScuR/SarF. Description: Randomized peptide screen (PsptA-cat, chloramphenicol resistance on xylose). In kind it is cell-based, Streptococcus salivarius. The note with it: xylose 0.1 or 1%; PsptA-cat reporter.
Source text: as §2

The next assay deals with Candida species. The note with it: Shekh and Roy (2012); cited from earlier work.
The subject of assay [3] is fungal microbial organism. The note with it: literature; cited from earlier work.
Assay [4] has as its system bacteriocin gene promoters (salivaricin promoters). Description: Luciferase (luxAB) activity of bacteriocin gene (salivaricin) promoters. The assay is classed as cell-based, Streptococcus salivarius HSISS4. The note with it: 1 μM; FIG. 7. The method, then:
as §1

The test system of assay [5] is pathogenic Gram-positive and Gram-negative bacteria. The note with it: Acuna et al. (2012); cited from earlier work.

On to “LAFWDSLG [Leu-Ala-Phe-Trp-Asp-Ser-Leu-Gly]”, for which, in the assay with ScuR, the “ScuR binding to PsptA probe” value was “more intense”. For the same molecule, the “induction of the sptA promoter in vivo” value in assay [1] (1 μM, FIG. 10A) is listed as “able to induce the sptA promoter in vivo”.
Take “LAFWDSLGLLL [LAFWDSLG with a triple leucine extension at the C-terminus (precursor peptide)]”: the “ScuR binding to PsptA probe” value in the assay on ScuR is reported as “requires extreme concentration”. In addition, the “induction of the sptA promoter in vivo” value in assay [1] (1 μM, FIG. 10A) is reported as “able to induce the sptA promoter in vivo”. Besides, the “PsptA induction of the longer peptide relative to the shorter one” value in assay [1] (1 μM, induction magnitude comparable to sBI7, FIG. 10A) is “much more active at 1 μM concentration than the shorter one”.
Turning to “MIAILPFWLILG [BI7, genome-encoded screen peptide]”, in the assay on sptA promoter (PsptA) (0.1% xylose, FIG. 2D), the “xylose-driven PsptA activity in comR or sarF deletion backgrounds” value is listed as “neither comR nor sarF deletion has a dramatic effect”; the “xylose-driven PsptA activity in scuR deletion background” value is “annihilates both xylose induction and basal leaky expression”.
Take “MIAILRPH [BM1, irrelevant genome-encoded peptide, negative control clone, reference compound]”: the “potentiation of PsptA-luxAB promoter activity by xylose addition” value in the assay on sptA promoter (PsptA) (xylose 0.1% or 1% vs mock, FIG. 2B) was “no effect”. Moreover, in assay [2], the “growth on chloramphenicol with vs without xylose” value is listed as “xylose-independent growth”.
Take “WLPPAGLLGRCGRWFRPWLLWLQ SGAQY KWLGNLFGLGPK (WLPPAGLLGRCGRWFRPWLLWLQSGAQYKWLGNLFGLGPK; Enterococcus faecalis peptide)”: the “neutralizing activity against Candida species” value with Candida species was “neutralizing activity against Candida species”.
On to botrycidin AJ1316, for which, in assay [3], the antifungal activities result is “antifungal activities”.
For “sBI7^G→A: sBI7 variant, C-terminal glycine substituted by alanine (LPFWLILA)”, the “Maximal activity of salivaricin (bacteriocin gene) promoters exposed to mutant peptides” value (from here on “Maximal activity of salivaricin”) in assay [4] was “low to high activation disability”. In assay [1], the “Maximal activity of PsptA exposed to sBI7 mutant peptides, low concentration” value (“Maximal activity … low concentration” below) is reported as “decreases the PsptA response” and the “Maximal activity of PsptA exposed to sBI7 mutant peptides, high concentration” value is “activate Pcat at a similar range than the WT sBI7 peptide”.
On to “sBI7^W→A: sBI7 variant, ultra-conserved tryptophan substituted by alanine (LPFALILG)”, for which the “Maximal activity of salivaricin” value in assay [4] is on record as “total inefficacy”. Besides, the “Maximal activity … low concentration” value in assay [1] is “neither alanine (sBI7^W→A) nor phenylalanine (sBI7^W→F) variants sustains luciferase transcription”.
For “sBI7^W→F: sBI7 variant, ultra-conserved tryptophan substituted by phenylalanine (LPFFLILG)”, the “Maximal activity of salivaricin” value in assay [4] is on record as “low to high activation disability”. Also, in assay [1], the “Maximal activity … low concentration” value is listed as “neither alanine (sBI7^W→A) nor phenylalanine (sBI7^W→F) variants sustains luciferase transcription” and the “Maximal activity of PsptA exposed to sBI7 mutant peptides, high concentration” value is “activate Pcat at a similar range than the WT sBI7 peptide”.

B1: Ent35-MccV: hybrid bacteriocin: N-terminal glycine, Enterocin CRL35, a linker comprising three glycines, and a C-terminal Microcin V (protein)
chain: GKYYGNGVSCNKKGCSVDWGRAIGIIGNNSAANLATGGAAGWKSGGGASGRDIAMAIGTLSGQFVAGGIGAAAGGVAGGAIYDYASTHKPNPAMSPSGLGGTIKQKPEGIPSEAWNYAAGRLCNWSPNNLSDVCL
modifications: Hybrid bacteriocin Ent35-MccV
notes: hybrid bacteriocin: N-terminal glycine, Enterocin CRL35, a linker comprising three glycines, and a C-terminal Microcin V
Turning to B1, the antimicrobial activity entry in assay [5] was “displays antimicrobial activity against pathogenic Gram-positive and Gram-negative bacteria”.
